The source of these data is paper PMC6130628, “Some pharmacokinetic parameters of salvianolic acid A following single-dose oral administration to rats” (Pharmaceutical Biology, 2018).

Data set [1] can be described thus: Tissue distribution of Sal A in rats. It is filed as in vivo, Sprague-Dawley rats. The settings on record: single oral dose 5 mg/kg. The procedure: Twenty-four healthy, intact Sprague–Dawley rats (male/female, 1/1, 185–215 g, Certificate No. SCXK 2006-0009) were purchased from Vital River Laboratories (Beijing, China). The rats were maintained in air-conditioned animal quarters with alternating 12 h light/dark cycles at a room temperature of 22 ± 2 °C and a relative humidity of 50 ± 10%. The rodents were given a commercial rat chow and water ad libitum. The experiment started after acclimation to the facilities for 7 days. The animal protocols used in this study followed guidelines set forth by the Ethic Committee of Laboratory Animals of the Affiliated Hospital of Qingdao University (QYFYKYLL 2013-2-4-01).
Rats were fasted overnight (∼12 h) and had free access to water throughout the experimental period. In our study, rats were treated as followed: 18 rats were divided into 3 groups randomly (6 rats/group, male/female =1/1) and were all given a single oral dose of 5 mg/kg. The animals were sacrificed 10 min, 1 and 2 h postdosing and stomach, small intestine, heart, liver, spleen, lung, kidney and brain were harvested for drug analysis. The remaining six rats were given normal saline as control. Tissue samples were frozen and maintained at –80 °C immediately until analysis.
Tissues were homogenized in normal saline (2 mL/g, except 6 mL/g for stomach) using a FLUKO F6/10 for 1–2 min over an ice bath. The aliquots of 200 μL homogenized tissues were used for the LC–MS analysis. The remaining steps were the same as sample preparation in “Pharmacokinetic study in vivo”.

The nature of data set [2]: Excretion of Sal A from rats (feces, urine, bile; UPLC–MS/MS). To be noted: single oral dose 20 mg/kg. The data set is classed as in vivo, Sprague-Dawley rats. The procedure:
Twelve healthy, intact Sprague-Dawley rats (male/female, 1/1, 185-215 g, Certificate No. SCXK 2006-0009) were purchased from Vital River Laboratories (Beijing, China). The rats were maintained in air-conditioned animal quarters with alternating 12 h light/dark cycles at a room temperature of 22 ± 2 °C and a relative humidity of 50 ± 10%. The rodents were given a commercial rat chow and water ad libitum. The experiment started after acclimation to the facilities for 7 days. The studies were conducted under protocols approved by the Ethics Committee of Laboratory Animals of the Affiliated Hospital of Qingdao University ([…] 2013-2-4-01). In the urine and feces excretion studies, rats were treated as follows. After acclimation to the facilities for 7 days in metabolism cages and being fasted overnight (∼12 h) with free access to water, six rats (male/female, 1/1) were given a single dose of Sal A at 20 mg/kg orally. Blank feces and urine were got prior to administration. […] These samples were immediately frozen and maintained at -80 °C until analysis. In the bile excretion study, rats were treated as follows. After acclimation to the facilities for 7 days and being fasted overnight (∼12 h) with free access to water, six rats (male/female, 1/1) received a bile duct intubation surgery. An oral dose of 20 mg/kg were given to the postoperative awake rats, and bile samples were collected prior and after the administration (from 0 to 2, 2 to 4, 4 to 6, 6 to 8, 8 to 12 and 12 to 24 h). The samples were immediately frozen and maintained at -80 °C immediately until analysis. After drying, feces were soaked in purified water containing VC 100 μg/mL (5 mL/g) overnight and treated with ultrasonic for 10 min. Homogenate was centrifuged at 13,400 rpm for 10 min. 200 μL of the supernatant was got for the UPLC-MS/MS analysis, along with 200 μL of urine and bile samples. Sample preparation was the same as sample preparation in “Pharmacokinetic study in vivo”.

A further data set has as its system Caco-2 cell monolayer. Description: Bidirectional transport experiments in the Caco-2 cell culture model. The data set is classed as in vitro ADME. How it is done: Caco-2 cells (passage number 34–36, American Type Culture Collection, Manassas, VA) were cultured at 37 °C in an atmosphere of 5% CO2 and 90% relative humidity in Dulbecco’s modified Eagle’s medium supplemented with 10% fetal bovine serum, 1% penicillin–streptomycin, 1% HEPES, 1% sodium pyruvate and 1% minimal essential medium nonessential amino acids. After harvesting at 90% confluence, the cells were seeded on to 0.4 μm polycarbonate membrane transwell inserts (12 mm diameter) at a density of 1.5 × 10^5 cells/cm^2. The culture media was changed every other day during the first 7 days after seeding and once a day thereafter. Cell monolayers were ready for experiments from 20 to 24 days postseeding.
Experiments in triplicate were performed in HBSS (pH =7.4).To ensure the stability of Sal A in HBSS, VC was applied in this study as stabilizer. The monolayers were washed three times with prewarmed HBSS (37 °C) before use. The integrity of the Caco-2 monolayers was monitored by measuring the transepithelial electrical resistance, and only monolayers with values ≥400 Ω/cm^2 were used. The monolayers were incubated with HBSS at 37 °C for 30 min, and then the incubation medium was aspirated. Afterwards, bidirectional transport experiments were conducted. Sal A solution of appropriate concentrations in HBSS (containing VC 1 0^−4 mol/L) were loaded to the donor compartments and the blank HBSS (containing VC 1 0^−4 mol/L) was added to the receiver compartments. Seven sequential samples (50 μL) were collected at different times (0, 30, 60, 90, 120, 150, 180 min) from the receiver side. The same volume of receiver medium was replaced after each sampling. The collected samples were added into tubes with 40 μL MeOH–H2O (50:50, v/v, containing VC 100 μg/mL). Then, 10 μL of the IS spiking solution (butyl paraben, 1 μg/mL) was added. After centrifugation at 13,400 rpm for 5 min, 20 μL of the supernatant was injected to the LC–MS system.
Influence of the stabilizer on the transport of Sal A has also been tested under the condition of different concentrations of VC. The samples were collected, treated and analyzed according to the same procedure.
The apparent permeability coefficient (Papp) was calculated according to the following equation: Papp=(ΔQ/Δt)/(A×C0) where ΔQ/Δt is the linear appearance rate of the tested compound in the receiver compartments, A is the surface area of the cell monolayer and C0 is the initial concentration of the tested compound in the donor side.

Details of data set [3]: method as in Sun et al. [2013]. The settings on record: Beagle dogs, oral, pure form; ref Sun et al. [2013]; cited from earlier work.
Details of data set [4]: method as in Pei et al. [2008]. The settings on record: oral administration at 100 mg/kg; ref Pei et al. [2008]; cited from earlier work.
The conditions of data set [5]: cited from earlier work.

“Also recorded” adds a separate entry of the source. Bounds are passed on as bounds.

Consider `O=C(/C=C/c1ccc(O)c(O)c1/C=C/c1ccc(O)c(O)c1)O[C@H](Cc1ccc(O)c(O)c1)C(=O)O` [Sal A, Salvianolic acid A], for which, in data set [1], the “presence in brain homogenate” value is reported as “detected in brain homogenate” and the “time to distribute into tissues” value is reported as ≤ 10 min. The “tissue with highest concentration” value in data set [1] (10 min, 1 and 2 h, 5 mg/kg) was “stomach followed by small intestine and liver; also recorded: highest tissue concentration was found in stomach”. Moreover, the “excretion via bile, mean % of the dose” value in data set [2] (bile duct intubated rats, 0–24 h) is recorded as 0.00373%. Besides, the dose excreted in data set [2] (both sexes, Sprague-Dawley, rat, feces, bile and urine, rats, read-out: recovery (accumulated excretion through feces, bile and urine), % of administered dose) was < 1%. Also, the “urinary excretion, mean % of the dose” value in data set [2] (rats, 0–96 h) was 0.00252%. Besides, the “influence of VC concentration on the amount of Sal A transported” value in the data set with Caco-2 cell monolayer (different VC concentrations, p> 0.05) is given as “no significant difference”. In addition, the “membrane permeability (classification by Papp)” value with Caco-2 cell monolayer (poorly absorbed: Papp <1 × 10^−6 cm/s) is “poor membrane permeability”. In addition, the absolute bioavailability in data set [3] was 1.25%. The plasma half-life in data set [4] is listed as 3.29 h. Also, in data set [5] (alkaline environment, ref Liu et al. [2011]), the “stability in intestinal alkaline environment” value is listed as “instability”. Also, the “stability in distilled water” value in data set [5] (distilled water, room temperature, ref Xu et al. [2008]) is “instable”.
